From PMC6264390, “Design, Synthesis and Structure-activity Studies of Rhodanine Derivatives as HIV-1 Integrase Inhibitors” (Molecules, 2010)
Like-named read-outs stand apart in the source and are kept apart here.

Columns and labels:
HIV-1 IN = biological target: T1, HIV-1 IN (Human immunodeficiency virus type 1 group M subtype B, UniProt P12497); experiment: In vitro IN inhibition assay (3’-processing and strand transfer); assay type: biochemical; settings: for IC50: Mn2+ cofactor (7.5 mM MnCl2); for IN inhibition (in words): highest concentration tested 100 μM
T1 construct: pre-incubated with purified recombinant IN (at a final concentration of 200 nM); made in house
Description: (§1) All compounds were dissolved in DMSO to a final stock concentration of 10 mM and stored at −20 °C. Initial screening for IN inhibitory effect was done at 100 μM and dilutions were made in DMSO. Compounds showing at least 50% inhibition at 100 μM were selected for IC50 determinations. γ-[^32P]-ATP was purchased from Perkin Elmer (Waltham, MA, USA). The expression system for wild-type IN was a generous gift of Dr. Robert Craigie, Laboratory of Molecular Biology, NIDDK, NIH (Bethesda, MD, USA). His-tagged APE1 was purified from an expression system kindly provided by Dr. Tom Curran, Department of Developmental Neurobiology, St. Jude Children’s Research Hospital (Memphis, TN, USA).
(§2) 21-mer oligonucleotides used in IN inhibition assay [21top (5’-[…]-3’) and 21bot (5’-ACTGCTAGAGATTTTCCA CAC-3’)] were purchased from Integrated DNA Technologies (Coralville, IA, USA) and purified by UV shadowing on polyacrylamide gel. The oligonucleotides used in APE1 inhibition assay [top strand: 5′-ATTTCACCGGTACG(F)TCTAGAATC CG-3′ containing the tetrahydrofuran synthetic abasic residue (F), and bottom strand: 3′-TAAAGTGG CCATGC(C)AGATCTTAGGC-5′] were purchased from The Midland Certified Reagent Company (Midland, TX, USA). To analyze the extent of 3’-processing and strand transfer with 5’-end labeled substrates, 21top was 5’-end labeled using T4 polynucleotide kinase (Epicentre, Madison, WI, USA) and [γ-^32P]-ATP (Perkin Elmer, Waltham, MA, USA). The kinase was heat-inactivated at 95 °C and 21bot was added in […]. The reaction mixture was allowed to cool slowly to room temperature, and purified through a spin-25 minicolumn (USA Scientific, Ocala, FL, USA) to separate annealed double-stranded oligonucleotide from unincorporated material. The oligonucleotides used in the APE1 inhibition assay were labeled using a similar protocol.
To determine the extent of 3’-processing and strand transfer, the test compounds, diluted in DMSO, were pre-incubated with purified recombinant IN (at a final concentration of 200 nM) in the reaction buffer [50 mM NaCl, 1 mM HEPES (pH 7.5), 50 μM EDTA, 50 μM dithiothreitol, 10% glycerol (w/v), 7.5 mM MnCl2, 0.1 mg mL–1 bovine serum albumin, 10 mM 2-mercaptoethanol, 10% dimethyl sulfoxide, and 25 mM MOPS (pH 7.2)] at 30 °C for 30 min. For Mg^2+ assay, 7.5 mM MgCl2 was substituted for MnCl2 and an optimal concentration of PEG was included in the reaction buffer. Following the pre-incubation, 20 nM of the 5’-end ^32P-labeled linear oligonucleotide substrate was added to the reaction mixture and incubated for an additional 1 h. Reactions were quenched by addition of 50X loading dye (98% deionized formamide, 10 mM EDTA, 0.025% xylene cyanol, and 0.025 % bromophenol blue). An aliquot was subjected to electrophoresis on a denaturing polyacrylamide gel (0.09 M tris–borate, pH 8.3, 2 mM EDTA, 20% acrylamide, 8M urea). Gels were dried under vacuum, exposed in a PhosphorImager cassette and visualized with a Typhoon 8610 Variable Mode Imager (Amersham Biosciences). Quantification was done with Image Quant 5.2 software. Percent inhibition (%I) was calculated using the following equation: %I = 100 × [1 − (D − C) / (N − C)] where C, N, and D are the fractions of 21-mer substrate converted into 19-mer (product of 3’-processing) or strand-transfer products for DNA alone, DNA plus IN, and DNA, IN plus test compound, respectively. IC50 values were determined by plotting the logarithm of test compound concentrations as a function of %I to obtain the concentration that produced 50% inhibition.

[1] = biological target: T2, human apurinic/apyrimidinic endonuclease 1 (APE1) (Homo sapiens, UniProt P27695); experiment: APE1 inhibition assay; assay type: biochemical; settings: read-out: Inhibition of APE1 catalytic activity IC50
T2 construct: His; made in house
T2 sequence (P27695 whole entry): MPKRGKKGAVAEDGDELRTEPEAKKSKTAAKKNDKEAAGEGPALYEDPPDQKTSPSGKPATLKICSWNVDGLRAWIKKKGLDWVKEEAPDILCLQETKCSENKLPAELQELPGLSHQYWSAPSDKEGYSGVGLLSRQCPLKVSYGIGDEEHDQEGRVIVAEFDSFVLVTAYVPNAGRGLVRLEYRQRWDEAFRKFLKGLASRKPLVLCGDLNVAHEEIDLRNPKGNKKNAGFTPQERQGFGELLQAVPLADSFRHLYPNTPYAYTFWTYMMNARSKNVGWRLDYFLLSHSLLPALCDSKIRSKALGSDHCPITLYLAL
Description: as §1, §2
APE1 inhibition assay was performed as previously described. To determine the extent of endonucleolytic cleavage of the abasic residue, the test compounds, diluted in DMSO, were preincubated with recombinant APE1 at a final concentration of 0.05 nM in the reaction buffer [50 mM NaCl, 1 mM HEPES, pH 7.5, 50 μM EDTA, 50 μM dithiothreitol, 10% glycerol (w/v), 7.5 mM MnCl2, 0.1 mg mL‑1 bovine serum albumin, 10 mM 2-mercaptoethanol, 10% DMSO, and 25 mM MOPS, pH 7.2] at 30 °C for 10 min. Following preincubation, 200 nM of the 5′-end ^32P-labeled linear oligonucleotide substrate was added, and incubated for an additional 10 minutes. Reactions were quenched by the addition of an equal volume (16 μL) of loading dye (98% deionized formamide, 10 mM EDTA, 0.025% xylene cyanol, and 0.025% bromophenol blue). An aliquot (5 μL) was electrophoresed on a denaturing 20% polyacrylamide gel (0.09 M tris-borate pH 8.3, 2 mM EDTA, 20% acrylamide, 8 M urea). The gels were dried, exposed in a PhosphorImager cassette and analyzed using a Typhoon 8610 Variable Mode Imager (Amersham Biosciences). Quantification of enzyme inhibition was done using Image Quant 5.2 software. The percent inhibition (% I) was calculated using the following equation: %I = 100 × [1 − (D − C) / (N − C)] where C, N, and D are the fractions of 26-mer substrate converted to 13-mer incision products (or integration products) for DNA alone, DNA plus APE1, and DNA, APE1 plus test compound, respectively. IC50 values were determined by plotting the logarithm of compound concentration as a function of %I to obtain the concentration that produced 50% inhibition. An optimum concentration of APE1 enzyme, at which there is complete conversion of the synthetic abasic-site containing oligonucleotide substrate to its cleaved product without subsequent exonuclease activity, was used in the assay.

[2] = read-out: Inhibition of IN catalytic activity IC50, 3’-Processing
[3] = read-out: Inhibition of IN catalytic activity IC50, Strand Transfer

| Compound | IC50 (HIV-1 IN; [2]) | IC50 (HIV-1 IN; [3]) | IC50 [1] | IN inhibition (in words) (HIV-1 IN) | melting point |
| --- | --- | --- | --- | --- | --- |
| 2-{[5-(2-Hydroxy-3,5-diisopropylbenzylidene)-4-oxo-2-thioxo-1,3-thiazolidin-3-yl]amino}-N-(3,4,5-trimethoxyphenyl)-2-thioxoacetamide [Compound 40] | > 100 µM | 95 µM | > 100 µM |  |  |
| 2-{[5-(2-Hydroxy-3,5-diisopropylbenzylidene)-4-oxo-2-thioxo-1,3-thiazolidin-3-yl]amino}-N-(4-hydroxyphenyl)-2-thioxoacetamide [Compound 54] | > 100 µM | > 100 µM | > 100 µM | loss of activity |  |
| 2-{[5-(5-Bromo-2-hydroxy-3-methoxybenzylidene)-4-oxo-2-thioxo-1,3-thiazolidin-3-yl]amino}-N-(3,4,5-trimethoxyphenyl)acetamide [Compound 38] | 51 ± 25 µM | 32 ± 11 µM | 65 ± 33 µM |  |  |
| O=C(Nc1ccc(F)cc1)C(=S)NN1C(=O)C(=Cc2ccc(Cl)cc2)SC1=S [Compound 6, 2-{[5-(4-Chlorobenzylidene)-4-oxo-2-thioxo-1,3-thiazolidin-3-yl]amino}-N-(4-fluorophenyl)-2-thioxo-acetamide] | > 100 µM | > 100 µM | > 100 µM |  | 204 to 205 °C |
| O=C(Nc1ccc(Cl)cc1)C(=S)NN1C(=O)C(=Cc2ccc(Cl)cc2)SC1=S [Compound 7, 2-{[5-(4-Chlorobenzylidene)-4-oxo-2-thioxo-1,3-thiazolidin-3-yl]amino}-N-(4-chlorophenyl)-2-thioxo-acetamide] | > 100 µM | > 100 µM |  | lacked any IN inhibitory activity | 211 to 212 °C |
| O=C(Nc1cccc([N+](=O)[O-])c1)C(=S)NN1C(=O)C(=Cc2ccc(Cl)cc2)SC1=S [Compound 8, 2-{[5-(4-Chlorobenzylidene)-4-oxo-2-thioxo-1,3-thiazolidin-3-yl]amino}-N-(3-nitrophenyl)-2-thioxo-acetamide] | > 100 µM | > 100 µM | 76 ± 5 µM | lacked any IN inhibitory activity | 221 to 222 °C |
| COc1ccc(NC(=O)C(=S)NN2C(=O)C(=Cc3ccc(Cl)cc3)SC2=S)cc1 [Compound 9, 2-{[5-(4-Chlorobenzylidene)-4-oxo-2-thioxo-1,3-thiazolidin-3-yl]amino}-N-(4-methoxyphenyl)-2-thioxoacetamide] | 33 µM | 33 µM | 47 ± 2 µM |  | 186 to 187 °C |
| O=C(Nc1ccccc1)C(=S)NN1C(=O)C(=Cc2c[nH]c3ccccc23)SC1=S [Compound 10, 2-{[5-(1H-indol-3-ylmethylene)-4-oxo-2-thioxo-1,3-thiazolidin-3-yl]amino}-N-phenyl-2-thioxo-acetamide] | > 100 µM | > 100 µM | > 100 µM | abolished any activity | 206 to 207 °C |
| O=C(Nc1cccc(C(F)(F)F)c1)C(=S)NN1C(=O)C(=Cc2ccc([N+](=O)[O-])o2)SC1=S [Compound 15, 2-{5-[(5-Nitro-2-furyl)methylene]-4-oxo-2-thioxo-1,3-thiazolidin-3-yl}amino-2-thioxo-N-[3-(trifluoro-methyl)phenyl]acetamide] | 61 ± 35 µM | 56 ± 11 µM |  |  | 163 to 164 °C |
| COc1cc(/C=C2/SC(=S)N(NC(=S)C(=O)Nc3cc(C(F)(F)F)cc(C(F)(F)F)c3)C2=O)cc(OC)c1OC [Compound 26, N-[3,5-bis(trifluoromethyl)phenyl]-2-{[4-oxo-2-thioxo-5-(3,4,5-trimethoxybenzylidene)-1,3-thiazol-idin-3-yl]amino}-2-thioxoacetamide] | > 100 µM | > 100 µM |  |  | 187 to 188 °C |
